Source: patent US12629357B2, “Treatment of viral infections, of organ injury, and of related conditions using a HIF prolyl hydroxylase inhibitor or a HIF-alpha stabilizer” (Akebia Therapeutics, Inc., priority 2020, dated 2026)

Test system: hospitalized patients with coronavirus disease 2019 (COVID-19)
Assay: multicenter, randomized, double-blind, placebo-controlled Bayesian adaptive clinical trial for prevention and treatment of ARDS
Type: in vivo, human
Excerpt: This example describes use of 5-(3-chlorophenyl)-3-hydroxypyridine-2-carbonyl] amino} acetic acid (vadadustat) in a multicenter, randomized, double-blind, placebo-controlled Bayesian adaptive clinical for the prevention and treatment of acute respiratory distress syndrome (ARDS) in hospitalized patients with coronavirus disease 2019 (COVID-19).
Inclusion criteria may include any or all of the following: • 1. Men and women ≥18 years of age. • 2. Laboratory-confirmed diagnosis of COVID-19 by detection of SARS-CoV-2 RNA by RT-PCR (reverse transcription polymerase chain reaction) from any specimen respiratory. • 3. Admitted to the hospital. • 4. Within 24 hours of hospital admission. • 5. Oxygen saturation of hemoglobin by pulse oximetry at room air ≤94%. • 6. Participation in any other clinical trial for the treatment for COVID-19 is not allowed. • 7. Understands the procedures and requirements of treatment and provides written informed consent and authorization for protected health information disclosure.
• 1. Males with hemoglobin >17.5 g/dL or females >15.5 g/dL. • 2. Hypersensitivity to vadadustat or any of its excipients. • 3. Placed on mechanical ventilation before randomization. • 4. Hemoglobin above the gender specific upper limit of normal (ULN) at randomization. • 5. Aspartate aminotransferase (AST), alanine aminotransferase (ALT), or total bilirubin >2.0×ULN at randomization. • 6. Patients who have erythrocytosis or polycethemia vera. • 7. Patients receiving any of the following medications: sulfasalazine or other BCRP substrates, probenecid or other UGT and OAT1/3 inhibitors. • 8. Women who are pregnant or breastfeeding, or positive pregnancy test before randomization. • 9. Patients on maintenance dialysis. • 10. Patients who have received a solid organ transplant. • 11. Patients who are prisoners.
Following screening, patients are randomized in a 1:1 ratio to either vadadustat 900 mg or placebo. Randomination is stratified by site, and MSOFA score at baseline (<4 and ≥4).
A subject may receive vadadustat (e.g., 900 mg vadadustat as 6 tablets once daily) for 14 days and without regard for meals at approximately the same time each day. Tablets can be crushed using a pill crusher and administered to an intubated patient through a nasogastric tube.
For example, the efficacy of vadadustat (e.g., 900 mg per day) for the prevention and treatment of ARDS among COVID-19 patients may be measured by ≥1 point deterioration on the NIAID ordinal scale for clinical improvement at day seven or day 14 of treatment.
Efficacy may also be assessed according to any of the following (including any combination thereof): • 1. The proportion of patients at day 14 who are dead (8) or hospitalized, on invasive mechanical ventilation or ECMO (7) or hospitalized, on non-invasive ventilation or high flow oxygen devices (6) on the NIAID-OS. • 2. Proportions of patients with a score of 0 at 14 days on the MSOFA (Modified Sequential Organ Failure Assessment) scale:
• 3. Average MSOFA scores at day 7 and day 14. • 4. Proportion of patients who develop ARDS or experienced increased ARDS severity from baseline based on the Berlin scale. • 5. Ventilator-free survival at day 7 and day 14. • 6. Overall survival at day 7 and day 14. • 7. Proportion of patients with hypotension (MAP (Mean Arterial Pressure)<70 mm Hg or requirement for inotropes or vasopressors to maintain blood pressure) at day 7 and day 14. • 8. Proportion of patients with acute kidney injury at day 7 and day 14. • 9. Time to hospital discharge.

[1] = vadadustat 900 mg once daily for 14 days compared to placebo, day 7 and day 14

O=C(O)CNC(=O)c1ncc(-c2cccc(Cl)c2)cc1O [vadadustat, {[5-(3-chlorophenyl)-3-hydroxypyridine-2-carbonyl]amino}acetic acid]
proportion of patients who develop ARDS or experienced increased ARDS severity from baseline based on the Berlin scale (vadadustat 900 mg once daily for 14 days compared to placebo): a lower or a reduction | proportions of patients with a score of 0 at 14 days on the MSOFA (vadadustat 900 mg once daily for 14 days compared to placebo, 14 days): an increase | average MSOFA scores at day 7 and day 14 [1]: a lower or a reduction | number of overall survival at day 7 and day 14 [1]: a greater or an increase | number of ventilator-free survival at day 7 and day 14 [1]: a greater or an increase | proportion of patients with hypotension (MAP <70 mm Hg or requirement for inotropes or vasopressors to maintain blood pressure) at day 7 and day 14 [1]: a lower or a reduction | time to hospital discharge (vadadustat 900 mg once daily for 14 days versus placebo): a shorter or a reduction | proportion of patients with acute kidney injury at day 7 and day 14 (vadadustat 900 mg once daily for 14 days versus placebo, day 7 and day 14): a lower or a reduction
